Laboratory results published in patent US20240398824A1, “Inhibition Of Rip Kinases For Treating Neurodegenerative Disorders” (The Johns Hopkins University, priority 2018, published 2024).

Experiments:
primary astrocytes = experiment: A1 astrocyte conversion in primary astrocytes treated with PFF-activated microglia conditioned medium (MCM); type: cell-based, mouse; settings: astrocytes 24 h with MCM from inhibitor-treated PFF-activated microglia; in words
Method: Primary neuron, microglia and astrocyte cell cultures, and α-synuclein PFE's treatment: NOD2 or RIPK2 knockout mice was obtained from Jackson Laboratories (Bar Harbor, ME, USA). Primary cortical neurons were prepared from embryonic day 15.5 pups and cultured in Neurobasal medium (Gibco) supplemented with B-27, 0.5 mM L-glutamine, penicillin and streptomycin (Invitrogen, Grand Island, NY, USA) on tissue-culture plates coated with poly-L-lysine. The neurons were maintained by changing the medium every 3-4 days. Primary microglial and astrocyte cultures were performed as described previously (PMID: 26157004). Whole brains from mouse pups at postnatal day 1 (P1) were obtained. […] The total protein concentration was determined using Pierce BCA protein assay kit (Thermo Scientific), and 15 or 50 μg ml^-1 of total protein was added to mouse primary neurons for the neuronal cell death assay. […] RNA concentration was measured spectrophotometrically using NanoDrop 2000 ([…]). […] The expression levels of targeted genes were normalized to the expression of β-actin and calculated based on the comparative cycle threshold Ct method (2-ΔΔCt).

primary cortical neurons = experiment: Neuronal toxicity of astrocyte conditioned medium (AlamarBlue and LDH assays); type: cell-based, mouse; settings: cortical neurons 24 h with ACM, in words
Method: Primary neuron, microglia and astrocyte cell cultures, and α-synuclein PFE's treatment: NOD2 or RIPK2 knockout mice was obtained from Jackson Laboratories (Bar Harbor, ME, USA). Primary cortical neurons were prepared from embryonic day 15.5 pups and cultured in Neurobasal medium (Gibco) supplemented with B-27, 0.5 mM L-glutamine, penicillin and streptomycin (Invitrogen, Grand Island, NY, USA) on tissue-culture plates coated with poly-L-lysine. The neurons were maintained by changing the medium every 3-4 days. Primary microglial and astrocyte cultures were performed as described previously (PMID: 26157004). Whole brains from mouse pups at postnatal day 1 (P1) were obtained. […] The total protein concentration was determined using Pierce BCA protein assay kit (Thermo Scientific), and 15 or 50 μg ml^-1 of total protein was added to mouse primary neurons for the neuronal cell death assay. […] Cell viability was determined by two methods: The AlamarBlue (Invitrogen) and LDH assay (Sigma). Cell death was assessed through AlamarBlue assay, according to the manufacturer's protocol. LDH activity in culture medium, representing relative cell viability and membrane integrity, was measured using the LDH assay kit spectrophotometrically, following the manufacturer's instructions. […]

Structure (SMILES)	A1 astrocyte conversion (primary astrocytes)	neuronal cell death induced by neurotoxic astrocytes (primary cortical neurons)
CC(C)(C)S(=O)(=O)c1ccc2nccc(Nc3n[nH]c4ccc(F)cc34)c2c1 [GSK583, 6-(tert-butylsulfonyl)-N-(5-fluoro-1H-indazol-3-yl) quinolin-4-amine]	significantly suppress	significantly prevented neuronal cell death
COc1cc2ncnc(Nc3ccc(F)c(Cl)c3)c2cc1OCCCN1CCOCC1 [Gefitinib]	significantly suppress	significantly prevented neuronal cell death
